# Patent US20090178149A1, “Polyamine Sensors and Methods of Using the Same” (priority 2005, published 2009)
# Biological target: FLIP-AF1 biosensor (AF1 protein fused to CFP and YFP Venus) (Agrobacterium fabrum, UniProt A9CK51)
# Conditions: excitation 433 nm, emission 485/528 nm; 20 mM sodium phosphate buffer, pH 7.0
# Procedure: A DNA fragment encoding the mature AF1 protein was fused to CFP and the YFP Venus sequence at the N- and C-termini, respectively. Emission spectra and substrate titration curves were obtained by using monochromator microplate reader Safire (Tecan, Austria). Excitation filter was 433/−12 nm, emission filters for CFP and YFP emission were 485/−12, 528 nm/12 nm, respectively. All analyses were done in 20 mM sodium phosphate buffer, pH 7.0.
# The FLIP-AF1 biosensor (see SEQ ID Nos. 3 and 4) was titrated against various putrescine concentrations.
# Chain of FLIP-AF1 biosensor (AF1 protein fused to CFP and YFP Venus) (A9CK51 27-365): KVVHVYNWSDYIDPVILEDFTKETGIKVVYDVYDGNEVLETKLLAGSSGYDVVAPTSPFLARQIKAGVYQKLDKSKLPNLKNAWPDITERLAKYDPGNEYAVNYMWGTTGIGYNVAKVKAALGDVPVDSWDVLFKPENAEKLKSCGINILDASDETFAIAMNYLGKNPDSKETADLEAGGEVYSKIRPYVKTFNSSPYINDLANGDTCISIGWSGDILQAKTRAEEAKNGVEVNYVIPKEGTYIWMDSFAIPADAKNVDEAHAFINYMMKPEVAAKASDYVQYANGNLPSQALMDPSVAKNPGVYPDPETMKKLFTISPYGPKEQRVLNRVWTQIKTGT
compound,measurement,value
"NCCCCN [putrescine, 1,4-diaminobutane]",change in CFP/YFP emission (YFP/CFP ratio) on addition of putrescine,decrease in the YFP/CFP ratio
